Reference: patent US20230293517A1, “ANTAGONIST COMPOUNDS” (AdoRx Therapeutics Limited, priority 2020, published 2023)
Where a name gives a salt, the structure may show the parent alone.

Tests used:
[1] = molecular target: human Adenosine A1 receptor (Homo sapiens (Human), UniProt P30542); assay: Adenosine receptor TR-FRET binding assay (A1); conditions: inhibition of binding of 100 nM CA200645, CHO cell membranes
Summary of the method: (§1)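 TR-FRET displacement of fluorescent XAC (CA200645; 30 nM for A2b, 100 nM for A1/A2a/A3) from terbium-labelled human receptors in CHO membranes, 2 h at room temperature with saponin, 1% DMSO. Non-specific binding with 10 μM XAC; 665/620 nm ratio; Ki from IC50 by Cheng–Prusoff.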

[2] = molecular target: human Adenosine A2a receptor (Homo sapiens (Human), UniProt P29274); assay: Adenosine receptor TR-FRET binding assay (A2a); conditions: inhibition of binding of 100 nM CA200645, CHO cell membranes
Summary of the method: as §1

[3] = molecular target: human Adenosine A3 receptor (Homo sapiens (Human), UniProt P0DMS8); assay: Adenosine receptor TR-FRET binding assay (A3); conditions: inhibition of binding of 100 nM CA200645, CHO cell membranes
Summary of the method: as §1

[4] = molecular target: human Adenosine A2b receptor (Homo sapiens (Human), UniProt P29275); assay: Adenosine receptor TR-FRET binding assay (A2b); conditions: TR-FRET, inhibition of binding of 30 nM CA200645, CHO cell membranes
Summary of the method: as §1

human Adenosine A2a receptor, sequence (P29274 whole entry): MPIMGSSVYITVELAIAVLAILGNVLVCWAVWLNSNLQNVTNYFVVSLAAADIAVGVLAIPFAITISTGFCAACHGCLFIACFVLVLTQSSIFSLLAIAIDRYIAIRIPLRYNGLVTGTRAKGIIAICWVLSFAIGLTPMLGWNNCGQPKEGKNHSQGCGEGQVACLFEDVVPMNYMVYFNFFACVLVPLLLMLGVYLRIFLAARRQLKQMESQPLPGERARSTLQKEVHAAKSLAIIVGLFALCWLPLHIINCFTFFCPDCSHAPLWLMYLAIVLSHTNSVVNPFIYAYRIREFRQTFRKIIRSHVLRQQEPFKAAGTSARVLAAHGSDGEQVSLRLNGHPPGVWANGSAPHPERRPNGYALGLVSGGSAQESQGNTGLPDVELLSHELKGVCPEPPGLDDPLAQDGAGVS
human Adenosine A2b receptor, sequence (P29275 whole entry): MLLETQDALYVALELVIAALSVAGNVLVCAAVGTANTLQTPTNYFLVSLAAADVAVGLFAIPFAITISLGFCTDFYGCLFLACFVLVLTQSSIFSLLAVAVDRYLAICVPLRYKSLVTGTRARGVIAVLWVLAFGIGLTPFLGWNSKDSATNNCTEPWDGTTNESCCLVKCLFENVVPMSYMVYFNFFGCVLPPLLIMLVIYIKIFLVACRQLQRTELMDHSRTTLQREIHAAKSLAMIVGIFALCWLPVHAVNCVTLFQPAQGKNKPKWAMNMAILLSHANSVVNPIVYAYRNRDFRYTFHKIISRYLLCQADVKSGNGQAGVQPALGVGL
human Adenosine A1 receptor, sequence (P30542 whole entry): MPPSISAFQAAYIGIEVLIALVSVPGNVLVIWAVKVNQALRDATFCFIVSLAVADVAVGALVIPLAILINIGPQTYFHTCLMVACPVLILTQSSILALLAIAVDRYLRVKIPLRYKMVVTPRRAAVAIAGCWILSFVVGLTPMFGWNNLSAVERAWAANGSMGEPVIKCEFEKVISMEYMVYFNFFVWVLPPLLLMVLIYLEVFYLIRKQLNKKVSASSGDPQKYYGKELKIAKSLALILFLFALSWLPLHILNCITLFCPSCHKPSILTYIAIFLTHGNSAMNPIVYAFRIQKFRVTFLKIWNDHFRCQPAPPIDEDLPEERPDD
human Adenosine A3 receptor, sequence (P0DMS8 whole entry): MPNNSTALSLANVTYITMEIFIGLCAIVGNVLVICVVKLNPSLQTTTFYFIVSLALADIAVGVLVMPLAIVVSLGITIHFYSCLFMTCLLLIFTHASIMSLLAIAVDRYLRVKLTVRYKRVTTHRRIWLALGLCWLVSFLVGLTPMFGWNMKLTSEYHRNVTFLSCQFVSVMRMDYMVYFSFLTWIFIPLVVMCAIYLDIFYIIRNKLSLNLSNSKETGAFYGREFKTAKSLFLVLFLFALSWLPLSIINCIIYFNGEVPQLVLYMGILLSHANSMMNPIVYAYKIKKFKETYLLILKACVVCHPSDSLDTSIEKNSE

Structure (SMILES) | Ki [1] | Ki [2] | Ki [3] | Ki [4]
Cc1cc(-c2sc(NC(=O)N3CCC(N4CCOCC4)C3)nc2-c2cccc(C#N)c2)cc(C)n1 (stereo not drawn) [Example 6.84, N-[4-(3-Cyanophenyl)-5-(2,6-dimethyl-4-pyridyl)thiazol-2-yl]-3-morpholino-pyrrolidine-1-carboxamide hemi formate salt] | 216 nM | 4.46 nM | 568 nM | 8.4 nM
Cc1cc(-c2sc(NC(=O)N3CC(=O)N[C@H](C)C3)nc2-c2cccc(C#N)c2)cc(C)n1 [Example 6.85, (3R)-N-[4-(3-Cyanophenyl)-5-(2,6-dimethyl-4-pyridyl)thiazol-2-yl]-3-methyl-5-oxo-piperazine-1-carboxamide] | 44 nM | 12.1 nM | 216 nM | 16 nM
Cc1cc(-c2sc(NC(=O)N3CCOC[C@@H]3C)nc2-c2cccc(C#N)c2)cc(C)n1 [Example 6.86, (3S)-N-[4-(3-Cyanophenyl)-5-(2,6-dimethyl-4-pyridyl)thiazol-2-yl]-3-methyl-morpholine-4-carboxamide] | 2 nM | 0.68 nM | 181 nM | 1.9 nM
Cc1cc(-c2sc(NC(=O)N3CCC34COC4)nc2-c2cccc(C#N)c2)cc(C)n1 [Example 6.87, N-[4-(3-Cyanophenyl)-5-(2,6-dimethyl-4-pyridyl)thiazol-2-yl]-6-oxa-1-azaspiro[3.3]heptane-1-carboxamide] | 57 nM | 1.75 nM | 37 nM | 6.7 nM
Cc1cc(-c2sc(NC(=O)N3CCC4(CC3)CN(C)C(=O)N4C)nc2-c2cccc(C#N)c2)cc(C)n1 [Example 6.89, N-[4-(3-Cyanophenyl)-5-(2,6-dimethyl-4-pyridyl)thiazol-2-yl]-1,3-dimethyl-2-oxo-1,3,8-triazaspiro[4.5]decane-8-carboxamide] | 326 nM | 1.01 nM | 300 nM | 3.5 nM
Cc1cc(-c2sc(NC(=O)N3CC(=O)N[C@@H](C)C3)nc2-c2cccc(C#N)c2)cc(C)n1 [Example 6.90, (3S)-N-[4-(3-Cyanophenyl)-5-(2,6-dimethyl-4-pyridyl)thiazol-2-yl]-3-methyl-5-oxo-piperazine-1-carboxamide] | 63 nM | 3.16 nM | 106 nM | 10.7 nM
Cc1cc(-c2sc(NC(=O)N3CCC(S(C)(=O)=O)CC3)nc2-c2cccc(C#N)c2)cc(C)n1 [Example 6.95, N-[4-(3-Cyanophenyl)-5-(2,6-dimethyl-4-pyridyl)thiazol-2-yl]-4-methylsulfonyl-piperidine-1-carboxamide] | 29 nM | 1.05 nM | 560 nM | 4.6 nM
CC(=O)N1C[C@H]2C[C@@H]1CN2C(=O)Nc1nc(-c2cccc(C#N)c2)c(-c2cc(C)nc(C)c2)s1 [Example 6.101, (1R,4R)-5-Acetyl-N-[4-(3-cyanophenyl)-5-(2,6-dimethyl-4-pyridyl)thiazol-2-yl]-2,5-diazabicyclo[2.2.1]heptane-2-carboxamide] | 30 nM | 1.1 nM | 853 nM | 3 nM
Cc1cc(-c2sc(NC(=O)N3C[C@@H]4C[C@H]3CN4C)nc2-c2cccc(C#N)c2)cc(C)n1 [Example 6.102, (1S,4S)-N-[4-(3-Cyanophenyl)-5-(2,6-dimethyl-4-pyridyl)thiazol-2-yl]-5-methyl-2,5-diazabicyclo[2.2.1]heptane-2-carboxamide] | 64 nM | 7.42 nM | 195 nM | 10.5 nM
Cc1cc(-c2sc(NC(=O)N3CCC4(CC3)CN(C)C(=O)N4)nc2-c2cccc(C#N)c2)cc(C)n1 [Example 6.103, N-[4-(3-Cyanophenyl)-5-(2,6-dimethyl-4-pyridyl)thiazol-2-yl]-3-methyl-2-oxo-1,3,8-triazaspiro[4.5]decane-8-carboxamide] | 61 nM | 0.68 nM | 475 nM | 1.7 nM
Cc1cc(-c2sc(NC(=O)N3CCC4(CN(C)CCO4)C3)nc2-c2cccc(C#N)c2)cc(C(F)F)n1 (stereo not drawn) [Example 6.107, N-[4-(3-Cyanophenyl)-5-[2-(difluoromethyl)-6-methyl-4-pyridyl]thiazol-2-yl]-9-methyl-6-oxa-2,9-diazaspiro[4.5]decane-2-carboxamide] | 69 nM | 1.37 nM | 156 nM | 2.3 nM
Cc1cc(-c2sc(NC(=O)N3CCC(C)(C#N)C3)nc2-c2cccc(C#N)c2)cc(C2COC2)n1 (stereo not drawn) [Example 6.110, 3-Cyano-N-[4-(3-cyanophenyl)-5-[2-methyl-6-(oxetan-3-yl)-4-pyridyl]thiazol-2-yl]-3-methyl-pyrrolidine-1-carboxamide] | 13 nM | 0.26 nM | 956 nM | 3.6 nM
Cc1cc(-c2sc(NC(=O)N3CCC(N)(C#N)CC3)nc2-c2cccc(C#N)c2)cc(C)n1 [Example 7.2, 4-Amino-4-cyano-N-[4-(3-cyanophenyl)-5-(2,6-dimethyl-4-pyridyl)thiazol-2-yl]piperidine-1-carboxamide] | 8 nM | 0.2 nM | 337 nM | 1 nM
CC(=O)N=S1(=O)CCN(C(=O)Nc2nc(-c3cccc(C#N)c3)c(-c3cc(C)nc(C)c3)s2)CC1 [Example 8, 1-Acetylimino-N-[4-(3-cyanophenyl)-5-(2,6-dimethyl-4-pyridyl)thiazol-2-yl]-1-oxo-1,4-thiazinane-4-carboxamide] | 59 nM | 1.83 nM | 776 nM | 1.8 nM
Cc1cc(-c2sc(NC(=O)N3CC4(COC4)C3)nc2-c2cccc(C#N)c2)cc(CO)n1 [Example 9, N-[4-(3-Cyanophenyl)-5-[2-(hydroxymethyl)-6-methyl-4-pyridyl]thiazol-2-yl]-2-oxa-6-azaspiro[3.3]heptane-6-carboxamide] | 47 nM | 0.61 nM | 2020 nM | 5.3 nM
Cc1cc(-c2sc(NC(=O)N3CCC4(CC3)CNC4=O)nc2-c2cccc(C#N)c2)cc(CO)n1 [Example 9.1] | 95 nM | 0.78 nM | 1000 nM | 7 nM
Cc1cc(-c2sc(NC(=O)N3CC[S+]([O-])CC3)nc2-c2cccc(C#N)c2)cc(CO)n1 [Example 9.3] | 29 nM | 1.11 nM | 1510 nM | 8.1 nM
Cc1cc(-c2sc(NC(=O)N3CCN(C4COC4)CC3)nc2-c2cccc(C#N)c2)cc(CO)n1 [Example 9.4] | 410 nM | 4.19 nM | 1540 nM | 20.1 nM
Cc1cc(-c2sc(NC(=O)N3CCC4(CC3)C(=O)N(C)C(=O)N4C)nc2-c2cccc(C#N)c2)cc(CO)n1 [Example 9.5] | 174 nM | 2.28 nM | 699 nM | 7.5 nM
Cc1cc(-c2sc(NC(=O)N3CCC(C#N)CC3)nc2-c2cccc(C#N)c2)cc(CO)n1 [Example 9.6] | 12 nM | 0.51 nM | 369 nM | 2.9 nM
Cc1cc(-c2sc(NC(=O)N3CC4(CCOC4)C3)nc2-c2cccc(C#N)c2)cc(C(C)(C)O)n1 [Example 12.1, N-[4-(3-Cyanophenyl)-5-[2-(1-hydroxy-1-methyl-ethyl)-6-methyl-4-pyridyl]thiazol-2-yl]-6-oxa-2-azaspiro[3.4]octane-2-carboxamide] | 7 nM | 0.2 nM | 1240 nM | 3.1 nM
Cc1cc(-c2sc(NC(=O)N3CCNC[C@@H]3C)nc2-c2cccc(C#N)c2)cc(C)n1 [Example 13.4, (2S)-N-[4-(3-Cyanophenyl)-5-(2,6-dimethyl-4-pyridyl)thiazol-2-yl]-2-methyl-piperazine-1-carboxamide] | 54 nM | 5.13 nM | 54 nM | 19.6 nM
Cc1cc(-c2sc(NC(=O)N3CCNC[C@@H]3CO)nc2-c2cccc(C#N)c2)cc(C)n1 [Example 13.5, (2R)-N-[4-(3-Cyanophenyl)-5-(2,6-dimethyl-4-pyridyl)thiazol-2-yl]-2-(hydroxymethyl)piperazine-1-carboxamide] | 84 nM | 9.87 nM | 226 nM | 18.8 nM
Cc1cc(-c2sc(NC(=O)N3CCNC[C@H]3CO)nc2-c2cccc(C#N)c2)cc(C)n1 [Example 13.6, (2S)-N-[4-(3-Cyanophenyl)-5-(2,6-dimethyl-4-pyridyl)thiazol-2-yl]-2-(hydroxymethyl)piperazine-1-carboxamide] | 220 nM | 16.8 nM | 133 nM | 79.7 nM
Cc1cc(-c2sc(NC(=O)N3CC4CC(C3)N4)nc2-c2cccc(C#N)c2)cc(C)n1 [Example 13.7, N-[4-(3-Cyanophenyl)-5-(2,6-dimethyl-4-pyridyl)thiazol-2-yl]-3,6-diazabicyclo[3.1.1]heptane-3-carboxamide] | 174 nM | 7.46 nM | 256 nM | 13.7 nM
Cc1cc(-c2sc(NC(=O)N3CCNC[C@H]3C)nc2-c2cccc(C#N)c2)cc(C)n1 [Example 13.8, (2R)-N-[4-(3-Cyanophenyl)-5-(2,6-dimethyl-4-pyridyl)thiazol-2-yl]-2-methyl-piperazine-1-carboxamide] | 47 nM | 2.38 nM | 41 nM | 12.3 nM
Cc1cc(-c2sc(NC(=O)N3CCC4(COCCN4)C3)nc2-c2cccc(C#N)c2)cc(C)n1 (stereo not drawn) [Example 13.9] | 225 nM | 2.01 nM | 646 nM | 14.9 nM
